Measurements: article PMC8667045, “Into Deep Water: Optimizing BCL6 Inhibitors by Growing into a Solvated Pocket” (Journal of Medicinal Chemistry, 2021)
Values after ≈ are worked out from the molar mass of the structure shown. Values joined by “and” are separate entries in the source; they are usually repeats but may differ in a detail not shown here. Equal entries are not always repeated. Where two headings read alike, the source gives them in different places.

Legend:
BCL6 BTB domain [1] = biological target: T1, BCL6 BTB domain (Homo sapiens, UniProt P41182); assay: biochemical
Procedure: Supplementary experimental: protein production, purification and crystallography
3C protease cleavage site.
used without cleaving the tag, as a 6His was needed to bind to the anti-6His-Terbium antibody. For
For both plasmid constructs described above, transformed BL21-AI E. coli cells were grown in LB
carried out at 18 °C for 18 hours. Cells were harvested by centrifugation (5500 g for 30 minutes at 4
oC) and stored at -80 °C.
Cells were re-suspended in a buffer composed of 20 mM Tris pH 8, 250 mM NaCl, 1 mM MgCl2, 0.5
Cells were lysed by sonication followed by centrifugation at 21,000 g for 45 minutes at 4 °C. […]
The final protein was assessed for purity
and molar mass by SDS-PAGE and high-resolution mass spectrometry, respectively.
directly eluted from the HisTrap FF column without HRV-3C treatment, and submitted to Superdex75
gel filtration as described above. […]
2. Supplementary experimental: biological assay conditions
IC50 values were determined using
a sigmoidal four-parameter logistic fit equation.

NMR solubility assay = type: physicochemical; details: HEPES buffer, 5% DMSO, room temperature
Procedure: 3. Supplementary experimental: physicochemical assays
The plate was then sealed and incubated at room temperature for 20 hours, without shaking. The plate was centrifuged again for 1 minute at […]
spectrometer equipped with a 5 mm TCI-CryoProbe. […]
deuterated solvent. […] All NMR data were acquired at the […]
contained 16k time-domain data points. Relaxation delay was set to 20 sec. […]

Measured logD7.4 = type: physicochemical; details: pH 7.4
OCI-Ly1 = assay: 14 day cell viability assay (CellTiter Glo); type: cell-based; details: Homo sapiens, BCL6-high, 14 days of treatment
SU-DHL-4 = assay: 14 day cell viability assay (CellTiter Glo); type: cell-based; details: Homo sapiens, BCL6-high, 14 days of treatment
SU-DHL-6 = assay: 14 day cell viability assay (CellTiter Glo); type: cell-based; details: Homo sapiens, BCL6-high, 14 days of treatment
OCI-Ly3 = assay: 14 day cell viability assay (CellTiter Glo); type: cell-based; details: Homo sapiens, BCL6-low, 14 days of treatment
MM.1S = assay: 14 day cell viability assay (CellTiter Glo); type: cell-based; details: Homo sapiens, MM1.S; BCL6-low, 14 days of treatment
[2] = In vivo pharmacokinetic study in female Balb/c mice; details: mouse; for Cmax: blood
Procedure: 5. Supplementary experimental: in vivo PK and PD experiments
All procedures were in accordance with UK Home Office regulations under the Animals (Scientific […]
accordance with published guidelines17. Mice were allowed access to food and water ad libitum.
5.1In vivo pharmacokinetic studies
All experiments were conducted in accordance with the UKCC guidelines for animal experimentations17. Animals were adapted to laboratory conditions for at least 1 week prior to dosing and were allowed food and water ad libitum. CCT369347 (25) was administered iv or po (mouse, 0.1 mL/10 g in 10% DMSO, 5% tween 20 in saline); Blood samples were collected in […]
collection together with a standard curve and quality controls spiked in control blood. Samples were reconstituted in a Water:MeOH mixture containing internal standard as previously described […]
Following centrifugation, extracts were analyzed by multiple reaction monitoring of precursor and product ions by ESI-LCMS/MS on either a Waters (Milford, MA, USA) Xevo TQ-S or Sciex (Framingham, MA, USA) QTrap6500 following gradient separation with 0.1% […]
Quantitation was carried out with an external calibration. Quality controls were […]
Pharmacokinetic parameters were derived from noncompartmental analysis using Phoenix Pharsight. Non compartmental analysis (model 200

[3] = Protein binding by equilibrium dialysis; type: in vitro ADME, mouse
[4] = PAMPA passive permeability pH 7.4; details: pH 7.4, passive permeability Pe
BCL6 BTB domain [5] = biological target: T1, BCL6 BTB domain; assay: SPR assay, immobilised BCL6 BTB protein (Biacore T200); type: binding; parameters: made in house; host or cells: E. coli BL21-AI
[6] = female, Balb/c, whole blood, iv, 1 mg/kg, IV 1 mg/kg, individual animals
[7] = female, Balb/c, whole blood, po, 5 mg/kg, PO 5 mg/kg, individual animals
[8] = IV 1 mg/kg, individual animals, 1 mg/kg
[9] = PO 5 mg/kg, individual animals, 5 mg/kg

With Cn1c(=O)cc(NC(C)(C)c2ncc(C3CC3)cn2)c2cc(Nc3ccnc(Cl)c3C#N)ccc21 [Compound 25, 2-Chloro-4-((4-((2-(5-cyclopropylpyrimidin-2-yl)propan-2-yl)amino)-1-methyl-2-oxo-1,2-dihydroquinolin-6-yl)amino)nicotinonitrile] the IC50 (BCL6 BTB domain [1]; BCL6 TR-FRET Geo Mean IC50, geometric mean of n replicates, supplement) was 0.03 µM, the IC50 (BCL6 BTB domain [1]; TR-FRET IC50 individual replicates, single replicates, italic values used 10nM BCL6, otherwise 1nM BCL6) was 40 nM and 20 nM (2×) and 30 nM (2×) and the “BCL6 TR-FRET pIC50 mean” value (BCL6 BTB domain [1]; mean of n replicates) was 7.58 and 7.583. For the same compound, the IC50 (BCL6 BTB domain [1]; read-out: BCL6 TR-FRET Geo Mean IC50, geometric mean of n replicates, supplement) was 0.0261 µM, the solubility at 20 h (NMR solubility assay) was 30 µM and 29 µM and the logD (Measured logD7.4) was 2.7. It also gave a GI50 (OCI-Ly1) of 1.68 µM, a GI50 (SU-DHL-4) of 3.45 µM and a GI50 (SU-DHL-6) of 2.55 µM. The GI50 (OCI-Ly3) was > 10 µM, the GI50 (MM.1S) was > 10 µM and the clearance ([2]; female, Balb/c, whole blood, iv, 1 mg/kg, 1 mg kg^–1 i.v., mean, read-out: clearance (CL)) was 1.44 L/h/kg. It also gave a Cmax [2, 6] of 0.443 µM, an AUC(0-inf) [2, 6] of 1380 nM·h and an AUC(0-t) [2, 6] of 1280 nM·h. The clearance ([2]; female, Balb/c, whole blood, iv, 1 mg/kg, IV 1 mg/kg, individual animals, read-out: CL) was 1.49 L/h/kg, the Tmax ([2]; female, Balb/c, whole blood, iv, 1 mg/kg, IV 1 mg/kg, individual animals, read-out: Tmax) was 0.08 h and the Vd ([2]; female, Balb/c, whole blood, iv, 1 mg/kg, IV 1 mg/kg, individual animals, read-out: Vss) was 9.43 L/kg. It also gave a Cmax [2, 7] of 0.347 µM, an AUC(0-inf) [2, 7] of 1440 nM·h and an AUC(0-t) [2, 7] of 1350 nM·h. The Tmax ([2]; female, Balb/c, whole blood, po, 5 mg/kg, PO 5 mg/kg, individual animals, read-out: Tmax) was 2 h, the bioavailability ([2]; female, Balb/c, whole blood, po, 5 mg kg^–1 p.o. vs 1 mg kg^–1 i.v.) was 29% and the “toxicity in PK study” value ([2]; 1 mg kg^–1 i.v. and 5 mg kg^–1 p.o.) was “no toxicity was observed”. For the same compound, the Cmax [2, 8] was 0.521 µM and 0.471 µM, the AUCINF [2, 8] was 1450 nM·h and 1416 nM·h and the AUClast [2, 8] was 1395 nM·h and 1344 nM·h. For the same compound, the CL [2, 8] was 1.42 L/h/kg and 1.45 L/h/kg, the HL_Lambda_z [2, 8] was 7.99 h and 5.93 h and 6.83 h and the Vss [2, 8] was 6.96 L/kg and 7.81 L/kg. For the same compound, the Cmax [2, 9] was 0.382 µM and 0.427 µM, the AUCINF [2, 9] was 1848 nM·h and 1279 nM·h and the AUClast [2, 9] was 1534 nM·h and 1233 nM·h. For the same compound, the HL_Lambda_z [2, 9] was 1.33 h and 2.12 h and 1.14 h, the Tmax [2, 9] was 1 h and the “free in mouse plasma” value [3] was 1.3%. For the same compound, the PAMPA7.4 [4] was 35 x10^-6 cms^-1, the Kd (BCL6 BTB domain [5]; individual runs, Langmuir plot, 1:1 binding model, read-out: SPR KD) was 0.277 µM and 0.282 µM and 0.198 µM and 0.201 µM and the Kd (BCL6 BTB domain [5]; mean of four runs, read-out: SPR KD mean value) was 0.236 µM. For the same compound, the “SPR pKd” value (BCL6 BTB domain [5]; mean, +/- SEM where printed) was 6.63.
For CC(Nc1cc(=O)n(C)c2ccc(Nc3ccnc(Cl)c3C#N)cc12)c1ncccn1 (stereo not shown) [Compound 13e, 2-Chloro-4-((1-methyl-2-oxo-4-((1-(pyrimidin-2-yl)ethyl)amino)-1,2-dihydroquinolin-6-yl)amino)nicotinonitrile], the solubility at 20 h (NMR solubility assay) was 249 µM (≈ 108 µg/mL), the logD (Measured logD7.4) was 1.4 and the PAMPA7.4 [4] was 1.4 x10^-6 cms^-1.
